Results: patent US11773063B1, “Pharmaceutically acceptable salts and compositions thereof” (priority 2022, dated 2023)
Where a name gives a salt, the structure may show the parent alone. Read-outs that look alike come from different tables or passages of the source.

Tests used:
[1] = Polymorph assessment, slurry maturation in 10 solvents between 5 and 50° C.; format: physicochemical; parameters: key to Observation at 50° C. / Observation at 5° C.: ✓ = solution; ✓/X = turbid solution; X = suspension; conditions: for dissolution in 10 volumes of solvent: 10 solvents, 5-50° C., 24 hours
Method: DR-2186-45-01 (20 mg, PHO Pattern 1+Extra Peaks) was weighed into 10 HPLC vials. To this was added 10 volumes (200 μL) of solvent, a stirrer bar and the samples heated to 50° C. on a Polar Bear heat/cool block (400 RPM). After holding at 50° C. for 30 minutes and observation was made and the samples cooled to 5° C. where a further observation was made. All samples were than subjected to heat/cool cycles between 5 and 50° C. holding for 4 hours at each temperature for 24 hours.
A polymorph assessment was carried out in 10 different solvents using PHO Pattern 1+extra peaks as the input material, maturating a slurry of the salt between 5° C. and 50° C. for 24 hours. The results of the XRPD analysis of the samples can be seen in FIG. 118. The isolated solid was the same as the input material in all cases other than MeOH.
DR-2186-46-01 (20 mg, TAR Pattern 1) was weighed into 10 HPLC vials. To this was added 10 volumes (200 μL) of solvent, a stirrer bar and the samples heated to 50° C. on a Polar Bear heat/cool block (400 RPM). After holding at 50° C. for 30 minutes and observation was made and the samples cooled to 5° C. where a further observation was made. All samples were than subjected to heat/cool cycles between 5 and 50° C. holding for 4 hours at each temperature for 24 hours.
A polymorph assessment was carried out in 10 different solvents, maturating a slurry of the salt between 5° C. and 50° C. for 24 hours.

[2] = Dissolution in hot MeOH (phosphate re-crystallisation); format: physicochemical; parameters: key to Observation (sample dissolution in hot MeOH): ✓ = solution; ✓/X = turbid solution; X = suspension
[3] = Dynamic Vapor Sorption (DVS), salt screen and scale-up salts; format: physicochemical
Method: Dynamic Vapor Sorption (DVS)
DVS analyses were performed on TA Instrument DVS Q5000. Samples were added to a pre-tared metallised quartz crucible and run at 25° C. from 40% RH to 90% RH, down to zero and back to 40%. This cycle was repeated in increments of 10% RH.

[4] = Storage at 40° C./75% RH for 1 week, XRPD (salts produced during scale-up); format: physicochemical; conditions: salt produced during scale-up
Method: Oxalate Salt HPLC Purity, DVS, Stability at 40° C./75% RH (XRPD and HPLC), PSD/Morphology Assessment

[5] = format: physicochemical; conditions: 40° C./75% RH, three days
Method: Physical Stability of Salts
Physical stability stress tests were conducted on generated crystalline salts at controlled temperature and relative humidity. The powder samples were stored at 40° C./75% RH for three days. After this time samples were analysed by XRPD to see whether the physical state of salts changed during the storage.

[6] = Solubility assessment in four different media; format: physicochemical; conditions: for pH after addition of 1.0 ml media at 37° C. / Observation: 250 mg per vial; for Observation: 1.0 ml media at 37° C.; for solubility: 37 °C, aqueous buffer, thermodynamic from solid, four different media
Method: Solubility assessments of 5-MeO-DMT oxalate, hydrobromide fumarate and benzoate were performed in four different media: […]

[7] = Thermo-Gravimetric Analysis (TGA), thermal stability; conditions: for thermal stability up to (TGA): nitrogen
Method: Thermo—Gravimetric Analysis (TGA)
TGA thermograms were obtained with a TA Instrument Discovery 550 in Al pans. The heating rate used was 10° C./min linear ramp from 25 to 400° C. with a nitrogen purging at a rate of 60 ml/min. TGA thermograms were analysed using TRIOS software.

[8] = Oxalate salt solubility by HPLC; format: physicochemical; conditions: for solubility: thermodynamic from solid, by HPLC, mother liquors adjusted to the desired pH, read-out: Solubility (mg/ml) of free base
Method: The calibration curve of the free base was prepared between 0.031-0.500 mg/ml and can be seen in FIG. 172.
Oxalate Salt Solubility by HPLC
Mother liquors were adjusted to the desired pH before HPLC quantification.

[9] = Storage at 40° C./75% RH and 25° C./97% RH for 7 days, XRPD and HPLC (Example 3); format: physicochemical
Method: FIG. 128. XRPD diffractogram overlay of 5-MeO-DMT Phosphate Pattern 1 before and after storage at 25° C./97% RH and 40° C./75% RH for 7 days.
FIG. 139. XRPD diffractogram overlay of 5-MeO-DMT Tartrate Pattern 1 before and after storage at 25° C./97% RH and 40° C./75% RH for 7 days.
The sample is classed as slightly hygroscopic with a total reversible mass change of 0.3 wt. % between 0-90% RH. The DVS isotherm and DVS kinetic plot can be seen in FIGS. 124 and 125, respectively. The solid form was unchanged after a double-cycle experiment, the XRPD analysis confirming this can be seen in FIG. 126.
The sample is classed as slightly hygroscopic with a total reversible mass change of 0.6 wt. % between 0-90% RH (FIG. 135). The solid-form was unchanged after the double-cycle experiment (FIG. 136).

[10] = DVS double-cycle experiment (Example 3); format: physicochemical
[11] = 5-MeO-DMT phosphate, input DR-2186-45-01 (PHO Pattern 1+Extra Peaks), 20 mg in 10 volumes, solvent per sample: -01 MeOH, -02 Acetone, -03 CAN, -04 IPA:Water 9:1, -05 2-MeTHF, -06 EtOAc, -07 Ethanol, -08 Toluene, -09 MEK, -10 TBME

COc1ccc2[nH]cc(CCN(C)C)c2c1 [DR-2186-45-01, 5-MeO-DMT phosphate]
dissolution in 10 volumes of solvent ([1]; listed as PHO Pattern 1+Extra Peaks): Non of the samples completely dissolved | Observation (sample dissolution in hot MeOH) ([2]; 5 volumes of MeOH, 50° C., 1.00 g PHO Pattern 1+extra peaks): X | Observation (sample dissolution in hot MeOH) ([2]; 8 volumes of MeOH, 50° C.): X | Observation (sample dissolution in hot MeOH) ([2]; 12 volumes of MeOH, 50° C.): X | Observation (sample dissolution in hot MeOH) ([2]; 16 volumes of MeOH, 50° C.): X | Observation (sample dissolution in hot MeOH) ([2]; 18 volumes of MeOH, 50° C.): X | Observation (sample dissolution in hot MeOH) ([2]; 18 volumes of MeOH, 60° C.): X | Observation (sample dissolution in hot MeOH) ([2]; 20 volumes of MeOH, 60° C., 150 RPM, Easymax vessel overhead stirring): X | Observation (sample dissolution in hot MeOH) ([2]; 20 volumes of MeOH, 60° C., scintillation vial): X | Observation (sample dissolution in hot MeOH) ([2]; 22 volumes of MeOH, 60° C., Easymax vessel overhead stirring): X | Observation (sample dissolution in hot MeOH) ([2]; 24 volumes of MeOH, 60° C., Easymax vessel overhead stirring): ✓/X | Observation (sample dissolution in hot MeOH) ([2]; 25 volumes of MeOH, 60° C., 250 RPM, Easymax vessel overhead stirring): ✓ | volumes of MeOH at which dissolution was achieved ([2]; MeOH at 60° C., 1.00 g): 25 volumes

COc1ccc2[nH]cc(CCN(C)C)c2c1.O=P(O)(O)O [DR-2186-52-02]
Observation at 5° C. [1, 11]: X | Observation at 50° C. [1, 11]: X

COc1ccc2[nH]cc(CCN(C)C)c2c1 [Fumarate salt, 5-MeO-DMT fumarate]
change of crystalline form during the DVS experiment (DVS / post-DVS XRPD) [3]: a change in crystalline form occurred | mass difference between 40% RH and 0% RH ([3]; DVS, salt produced during scale-up): ~2.84% | crystalline form after storage (XRPD) [4]: mixture of form/pattern 1 and form/pattern 2 | crystalline form after storage (XRPD) [5]: some additional peaks were also observed | pH after addition of 1.0 ml media at 37° C. ([6]; SNF): 5.14 | Observation ([6]; SNF): Clear solution | solubility ([6]; four media: SNF, pH 1.2, pH 4.5 and pH 6.8 media): ≥ 250 mg/mL | pH after addition of 1.0 ml media at 37° C. ([6]; pH 1.2 buffer): 5.24 | Observation ([6]; pH 1.2 buffer): Clear solution | pH after addition of 1.0 ml media at 37° C. ([6]; pH 4.5 buffer): 5.31 | Observation ([6]; pH 4.5 buffer): Clear solution | pH after addition of 1.0 ml media at 37° C. ([6]; pH 6.8 buffer): 5.79 | Observation ([6]; pH 6.8 buffer): Clear solution | thermal stability up to (TGA) ([7]; 10° C./min): 150 °C

Br.COc1ccc2[nH]cc(CCN(C)C)c2c1 [Hydrobromide salt, 5-MeO-DMT hydrobromide]
change of crystalline form during the DVS experiment (DVS / post-DVS XRPD) [3]: no change in crystalline form | hygroscopicity class ([3]; DVS, 25° C.): non-hygroscopic | crystalline form after storage (XRPD) [4]: no change in crystalline form | crystalline form after storage (XRPD) [5]: No change in crystalline form | solubility compared to other salts [6]: high solubility | solubility [6]: ≥ 250 mg/mL | pH after addition of 1.0 ml media at 37° C. ([6]; SNF): 8.13 | Observation ([6]; SNF): Clear solution | pH after addition of 1.0 ml media at 37° C. ([6]; pH 1.2 buffer): 8.09 | Observation ([6]; pH 1.2 buffer): Clear solution | pH after addition of 1.0 ml media at 37° C. ([6]; pH 4.5 buffer): 7.65 | Observation ([6]; pH 4.5 buffer): Clear solution | pH after addition of 1.0 ml media at 37° C. ([6]; pH 6.8 buffer): 7.82 | Observation ([6]; pH 6.8 buffer): Clear solution | thermal stability up to (TGA) ([7]; 10° C./min): 220 °C | temperature with 95% of weight remaining (TGA) ([7]; Ramp 10° C./min to 400° C., salt produced during scale-up): 269 °C

COc1ccc2[nH]cc(CCN(C)C)c2c1 [Oxalate salt, 5-MeO-DMT oxalate]
change of crystalline form during the DVS experiment (DVS / post-DVS XRPD) [3]: no change in the crystalline form | crystalline form after storage (XRPD) [4]: no change in crystalline form | form of isolated solids after solubility experiment (XRPD) [8]: no change in form | solubility ([8]; fassgf or other biorelevant, SNF): 20.2 mg/mL | solubility ([8]; pH 4.5 medium, aqueous buffer, pH 4.5): 35.5 mg/mL | solubility ([8]; pH 6.8 medium, aqueous buffer, pH 6.8): 26.9 mg/mL

COc1ccc2[nH]cc(CCN(C)C)c2c1 [Tartrate Pattern 1, 5-MeO-DMT tartrate]
dissolution in 10 volumes of solvent [1]: No dissolution was observed | change by XRPD or HPLC after storage ([9]; 25° C./97% RH): no change | Static Storage 7 days - 40° C./75% RH, XRPD ([9]; 40° C./75% RH): KRPD-TAR Pattern 1 | change by XRPD or HPLC after storage ([9]; 40° C./75% RH): no change | Static Storage 7 days - 40° C./75% RH, HPLC ([9]; 40° C./75% RH, HPLC purity): HPLC-97.8% | TGA mass loss before decomposition [7]: No mass loss observed in sample before | start of decomposition / complete mass loss (TGA) ([7]; 10° C./min): 175 °C | solid form after double-cycle DVS experiment (XRPD) [10]: unchanged | total reversible mass change between 0-90% RH ([10]; DVS): 0.6 wt. % | hygroscopicity class ([10]; DVS 0-90% RH, Example 3): slightly hygroscopic (Pharmaceuticals that pick up between 0.2% and 2.0% moisture at 80% RH are considered slightly hygroscopic) | GVS total mass change as mol eq. water ([10]; from 0-90% RH): RH (0.12 mol eq. of water) and is reversible with mol eq. water | GVS total mass change ([10]; from 0-90% RH, double cycle): Total mass change of 0.58 wt. % from 0-90% | Solid form of the material after GVS by XRPD ([10]; post GVS): unchanged by XRPD.
